Legend:
c-kit mutant D816V = molecular target: T1, c-kit mutant D816V (Homo sapiens, UniProt P10721, D816V/DEL694-753); test: c-Kit mutant D816V biochemical assay, AlphaScreen; details: c-kit D816V biochemical inhibitory activity; read-out: Biochemical activity (IC50 μM) Kit D816V
T1 construct: residues 551-934, kinase insertion domain residues 694-753 deleted; 6x-histidine (N); made in house; host or cells: E. coli Arctic Express (DE3) RIL (Stratagene)
How it was run: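 Eight-point, threefold compound series incubated 30 min at room temperature with E. coli-produced D816V kinase, 10 μM ATP, Mg2+/Mn2+ HEPES buffer pH 7.2 and 5% DMSO. After EDTA stop, streptavidin and anti-phosphotyrosine (PY20) AlphaScreen beads gave the read-out, and IC50 was fitted from the concentration–signal curve.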

c-kit kinase = molecular target: T2, c-kit kinase (Homo sapiens, UniProt P10721); test: c-Kit biochemical assay, AlphaScreen, 10 μM ATP; details: c-kit biochemical inhibitory activity; read-out: Biochemical activity (IC50 μM) Kit
T2 construct: The c-kit (or kinase domain thereof) is an active kinase in AlphaScreen; poly-Histidine tag (in-house protein only) (cleaved yes); host or cells: E. coli BL21(DE3)RIL, co-expressed with PTP1B
T2 sequence (P10721 26-976): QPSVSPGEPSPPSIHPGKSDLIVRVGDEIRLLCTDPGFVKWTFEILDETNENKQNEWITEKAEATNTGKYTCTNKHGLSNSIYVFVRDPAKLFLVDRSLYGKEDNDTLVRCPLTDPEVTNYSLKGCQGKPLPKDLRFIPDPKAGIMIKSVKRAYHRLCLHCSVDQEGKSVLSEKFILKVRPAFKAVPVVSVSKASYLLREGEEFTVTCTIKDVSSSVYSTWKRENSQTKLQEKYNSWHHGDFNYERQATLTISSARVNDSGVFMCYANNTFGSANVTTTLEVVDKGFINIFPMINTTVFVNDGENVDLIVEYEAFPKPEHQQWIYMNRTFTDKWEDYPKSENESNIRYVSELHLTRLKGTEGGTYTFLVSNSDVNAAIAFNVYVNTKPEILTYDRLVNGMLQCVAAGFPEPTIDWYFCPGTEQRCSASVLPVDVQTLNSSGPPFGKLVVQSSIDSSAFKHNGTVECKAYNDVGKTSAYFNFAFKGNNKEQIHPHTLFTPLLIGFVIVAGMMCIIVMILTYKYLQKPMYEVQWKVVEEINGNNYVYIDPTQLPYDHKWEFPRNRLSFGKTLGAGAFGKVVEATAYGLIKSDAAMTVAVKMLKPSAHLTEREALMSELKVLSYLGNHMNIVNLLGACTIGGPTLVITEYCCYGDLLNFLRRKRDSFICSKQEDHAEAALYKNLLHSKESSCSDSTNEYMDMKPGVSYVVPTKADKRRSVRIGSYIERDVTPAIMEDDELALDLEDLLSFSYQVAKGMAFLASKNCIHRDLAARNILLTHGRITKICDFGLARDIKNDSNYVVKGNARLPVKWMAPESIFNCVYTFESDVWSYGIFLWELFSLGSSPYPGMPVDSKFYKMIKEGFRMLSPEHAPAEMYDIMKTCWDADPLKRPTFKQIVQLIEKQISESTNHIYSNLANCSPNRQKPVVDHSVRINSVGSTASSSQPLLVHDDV
How it was run: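 His-tagged c-Kit expressed in E. coli with co-expressed PTP1B (dephosphorylated), tag removed; 0.1 ng per reaction with biotinylated-peptide substrate in 50 mM HEPES pH 7.2, 5 mM MgCl2, 5 mM MnCl2, 5% DMSO, 10 μM ATP, 1 h at room temperature. Phosphorylation detected by AlphaScreen (streptavidin donor, PY20 acceptor beads); IC50 from 8-point 1:3 dilution series.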

T1 sequence (P10721 with tags, fused parts or gaps DEL694-753/D816V): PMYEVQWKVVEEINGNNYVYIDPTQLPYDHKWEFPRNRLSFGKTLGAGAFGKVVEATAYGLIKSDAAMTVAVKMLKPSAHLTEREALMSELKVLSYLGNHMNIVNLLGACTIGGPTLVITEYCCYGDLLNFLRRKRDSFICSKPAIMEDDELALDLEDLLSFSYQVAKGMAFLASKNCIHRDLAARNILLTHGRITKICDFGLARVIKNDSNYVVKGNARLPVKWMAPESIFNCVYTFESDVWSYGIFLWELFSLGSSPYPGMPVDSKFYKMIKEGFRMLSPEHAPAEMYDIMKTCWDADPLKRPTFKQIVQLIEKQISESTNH

| SMILES | IC50 (c-kit mutant D816V) | IC50 (c-kit kinase) |
| --- | --- | --- |
| Cc1nc(C)c(-c2cc3ncnc(N4CCN(C(=O)N[C@@H](C)c5cccc(Cl)c5)C(C)(C)C4)c3s2)s1 [P-0557, N-[(1S)-1-(3-chlorophenyl)ethyl]-4-[6-(2,4-dimethylthiazol-5-yl)thieno[3,2-d]pyrimidin-4-yl]-2,2-dimethyl-piperazine-1-carboxamide] | 0.0001 to 1 µM | 10 to 200 µM |
| CC(C)Oc1ccc(S(=O)(=O)NC2CCN(c3ncnc4[nH]c(-c5cnn(C)c5)cc34)CC2)cc1 [P-0488, 4-isopropoxy-N-[1-[6-(1-methylpyrazol-4-yl)-7H-pyrrolo[2,3-d]pyrimidin-4-yl]-4-piperidyl]benzenesulfonamide] | 0.0001 to 1 µM | 0.0001 to 1 µM |
| CS(=O)(=O)Nc1ccc(-c2cc3c(N4CCN(C(=O)Nc5ccc(OC(F)(F)F)cc5)CC4)ncnc3[nH]2)cc1 [P-0077, 4-[6-[4-(methanesulfonamido)phenyl]-7H-pyrrolo[2,3-d]pyrimidin-4-yl]-N-[4-(trifluoromethoxy)phenyl]piperazine-1-carboxamide] | 0.0001 to 1 µM | 0.0001 to 1 µM |
| C[C@H](NC(=O)N1CCN(c2ncnc3[nH]c(-c4cnn(C)c4)cc23)CC1)c1ccc(Cl)cc1 [P-0095, N-[(1S)-1-(4-chlorophenyl)ethyl]-4-[6-(1-methylpyrazol-4-yl)-7H-pyrrolo[2,3-d]pyrimidin-4-yl]piperazine-1-carboxamide] | 0.0001 to 1 µM | 0.0001 to 1 µM |
| COc1cccc([C@H](C)NC(=O)N2CCN(c3ncnc4[nH]c(C#CC5CC5)cc34)CC2)c1 [P-0047, 4-[6-(2-cyclopropylethynyl)-7H-pyrrolo[2,3-d]pyrimidin-4-yl]-N-[(1S)-1-(3-methoxyphenyl)ethyl]piperazine-1-carboxamide] | 0.0001 to 1 µM | 1 to 10 µM |
| C[C@H](NC(=O)N1CCN(c2ncnc3[nH]c(-c4ccc(F)cc4)cc23)CC1(C)C)c1ccc(F)cc1 [P-0642, N-[(1S)-1-(4-fluorophenyl)ethyl]-4-[6-(4-fluorophenyl)-7H-pyrrolo[2,3-d]pyrimidin-4-yl]-2,2-dimethyl-piperazine-1-carboxamide] | 0.0001 to 1 µM | 1 to 10 µM |
| O=S(=O)(Nc1ccc(-c2ncnc3[nH]c(-c4cc(F)ccc4F)cc23)c(F)c1)C1CC1 [P-0338, N-[4-[6-(2,5-difluorophenyl)-7H-pyrrolo[2,3-d]pyrimidin-4-yl]-3-fluoro-phenyl]cyclopropanesulfonamide] | 1 to 10 µM | 10 to 200 µM |
| Cc1ccc(-c2cc3c(N4CCN(C(=O)N[C@@H](C)c5cccc(F)c5)C(C)(C)C4)ncnc3[nH]2)cn1 [P-0007, N-[(1S)-1-(3-fluorophenyl)ethyl]-2,2-dimethyl-4-[6-(6-methyl-3-pyridyl)-7H-pyrrolo[2,3-d]pyrimidin-4-yl]piperazine-1-carboxamide] | 0.0001 to 1 µM | 10 to 200 µM |
| C[C@H](NC(=O)N1CC=C(c2ncnc3cc(-c4ccc(F)cc4)sc23)CC1)c1cccc(Cl)c1 [P-0579, N-[(1S)-1-(3-chlorophenyl)ethyl]-4-[6-(4-fluorophenyl)thieno[3,2-d]pyrimidin-4-yl]-3,6-dihydro-2H-pyridine-1-carboxamide] | 1 to 10 µM | 10 to 200 µM |
| Cc1cc2c(-c3ccc(NS(=O)(=O)c4cc5ccccc5s4)cc3)ncnc2[nH]1 [P-0309, N-[4-(6-methyl-7H-pyrrolo[2,3-d]pyrimidin-4-yl)phenyl]benzothiophene-2-sulfonamide] | 1 to 10 µM | 1 to 10 µM |
| C[C@@H]1CN(c2ncnc3[nH]c(-c4ccncc4)cc23)CCN1C(=O)NCc1cccc(Cl)c1 [P-0056, (2R)-N-[(3-chlorophenyl)methyl]-2-methyl-4-[6-(4-pyridyl)-7H-pyrrolo[2,3-d]pyrimidin-4-yl]piperazine-1-carboxamide] | 0.0001 to 1 µM | 1 to 10 µM |
| CCS(=O)(=O)Nc1ccc(-c2ncnc3[nH]c(-c4ccc(F)cc4)cc23)c(F)c1 [P-0381, N-[3-fluoro-4-[6-(4-fluorophenyl)-7H-pyrrolo[2,3-d]pyrimidin-4-yl]phenyl]ethanesulfonamide] | 0.0001 to 1 µM | 0.0001 to 1 µM |
| CCOc1ccc(NC(=O)N2CCN(c3ncnc4[nH]c(C)cc34)CC2)cc1 [P-0181, N-(4-ethoxyphenyl)-4-(6-methyl-7H-pyrrolo[2,3-d]pyrimidin-4-yl)piperazine-1-carboxamide] | 10 to 200 µM | 10 to 200 µM |
| COc1cccc([C@H](C)NC(=O)N2CCN(c3ncnc4[nH]c(-c5ccc(F)cc5)cc34)C[C@H]2C)c1 [P-0028, (R)-4-[6-(4-Fluoro-phenyl)-7H-pyrrolo[2,3-d]pyrimidin-4-yl]-2-methyl-piperazine-1-carboxylic acid [(S)-1-(3-methoxy-phenyl)-ethyl]-amide] | 0.0001 to 1 µM | 0.0001 to 1 µM |
| Cc1ccc(S(=O)(=O)Nc2ccc(-c3ncnc4[nH]c(C)cc34)c(F)c2)cc1 [P-0293, N-[3-fluoro-4-(6-methyl-7H-pyrrolo[2,3-d]pyrimidin-4-yl)phenyl]-4-methyl-benzenesulfonamide] | 0.0001 to 1 µM | 1 to 10 µM |
| O=C(NCc1ccc(F)cc1)N1CCN(c2ncnc3[nH]cc(CC4CC4)c23)CC1 [P-0137, 4-[5-(cyclopropylmethyl)-7H-pyrrolo[2,3-d]pyrimidin-4-yl]-N-[(4-fluorophenyl)methyl]piperazine-1-carboxamide] | 1 to 10 µM | 10 to 200 µM |
| COc1ccc(S(=O)(=O)Nc2ccc(-c3ncnc4cc(OC)c(OCCCN5CCOCC5)cc34)c(F)c2)cc1 [P-0249, N-[3-fluoro-4-[7-methoxy-6-(3-morpholinopropoxy)quinazolin-4-yl]phenyl]-4-methoxy-benzenesulfonamide] | 0.0001 to 1 µM | 1 to 10 µM |
| C[C@H]1CN(c2ncnc3[nH]c(-c4ccncc4)cc23)CCN1 [P-0071, 4-[(3S)-3-methylpiperazin-1-yl]-6-(4-pyridyl)-7H-pyrrolo[2,3-d]pyrimidine] | 1 to 10 µM | 10 to 200 µM |
| [2H]C([2H])([2H])S(=O)(=O)Nc1ccc(-c2ncnc3cc(OCCCN4CCCCC4)c(OC)cc23)c(F)c1 [P-0254, 1,1,1-trideuterio-N-[3-fluoro-4-[6-methoxy-7-[3-(1-piperidyl)propoxy]quinazolin-4-yl]phenyl]methanesulfonamide] | 0.0001 to 1 µM | 1 to 10 µM |
| Cn1cc(-c2cc3c(N4CCN(C(=O)Nc5ccc(F)cc5)CC4)ncnc3[nH]2)cn1 [P-0096, N-(4-fluorophenyl)-4-[6-(1-methylpyrazol-4-yl)-7H-pyrrolo[2,3-d]pyrimidin-4-yl]piperazine-1-carboxamide] | 0.0001 to 1 µM | 0.0001 to 1 µM |
| CCOc1ccc(NC(=O)N2CCN(c3ncnc4[nH]c(-c5cccnc5)cc34)CC2)cc1 [P-0225, N-(4-ethoxyphenyl)-4-[6-(3-pyridyl)-7H-pyrrolo[2,3-d]pyrimidin-4-yl]piperazine-1-carboxamide] | 1 to 10 µM | 10 to 200 µM |
| O=C(Nc1ccc(OC(F)(F)F)cc1)N1CCN(c2ncnc3[nH]c(-c4ccc(F)cc4)cc23)CC1 [P-0133, 4-[6-(4-fluorophenyl)-7H-pyrrolo[2,3-d]pyrimidin-4-yl]-N-[4-(trifluoromethoxy)phenyl]piperazine-1-carboxamide] | 1 to 10 µM | 0.0001 to 1 µM |
| O=C(Nc1cccc(C(F)(F)F)c1)NC1CCN(c2ncnc3[nH]ccc23)CC1 [P-0515, 1-[1-(7H-pyrrolo[2,3-d]pyrimidin-4-yl)-4-piperidyl]-3-[3-(trifluoromethyl)phenyl]urea] | 10 to 200 µM | 1 to 10 µM |
| C[C@H](NC(=O)N1CCN(c2ncnc3[nH]c(-c4ccc(C#N)cc4)cc23)CC1(C)C)c1cccc(Cl)c1 [P-0689, N-[(1S)-1-(3-chlorophenyl)ethyl]-4-[6-(4-cyanophenyl)-7H-pyrrolo[2,3-d]pyrimidin-4-yl]-2,2-dimethyl-piperazine-1-carboxamide] | 0.0001 to 1 µM | 0.0001 to 1 µM |
| COCCOc1cc2ncnc(-c3ccc(NS(=O)(=O)c4ccc(OC(F)F)cc4)cc3F)c2cc1OCCOC [P-0259, N-[4-[6,7-bis(2-methoxyethoxy)quinazolin-4-yl]-3-fluoro-phenyl]-4-(difluoromethoxy)benzenesulfonamide] | 0.0001 to 1 µM | 1 to 10 µM |
| Fc1ccc(-c2cc3c(-c4ccc(NCc5ccc(C(F)(F)F)nc5)nc4)ncnc3[nH]2)cc1 [P-0415, 5-[6-(4-fluorophenyl)-7H-pyrrolo[2,3-d]pyrimidin-4-yl]-N-[[6-(trifluoromethyl)-3-pyridyl]methyl]pyridin-2-amine] | 1 to 10 µM | 0.0001 to 1 µM |
| O=S(=O)(NCC1CC1)c1ccc(-c2ncnc3[nH]c(-c4ccc(F)cc4)cc23)c(F)c1 [P-0369, N-(cyclopropylmethyl)-3-fluoro-4-[6-(4-fluorophenyl)-7H-pyrrolo[2,3-d]pyrimidin-4-yl]benzenesulfonamide] | 1 to 10 µM | 10 to 200 µM |
| Cn1cc(-c2cc3c(N4CCC(NS(=O)(=O)c5ccc6c(c5)CCO6)CC4)ncnc3[nH]2)cn1 [P-0457, N-[1-[6-(1-methylpyrazol-4-yl)-7H-pyrrolo[2,3-d]pyrimidin-4-yl]-4-piperidyl]-2,3-dihydrobenzofuran-5-sulfonamide] | 0.0001 to 1 µM | 10 to 200 µM |

Source: patent US10227357B2, “Compounds and methods for kinase modulation, and indications therefor” (Plexxikon Inc., priority 2012, dated 2019)
